According to patent US20240217946A1, “ANTIDEPRESSANT AND ANXIOLYTIC SUBSTITUTED CINNAMAMIDE COMPOUND” (TASLY PHARMACEUTICAL GROUP CO., LTD., priority 2021, published 2024):
Values joined by “and” are separate entries in the source; they are usually repeats but may differ in a detail not shown here. Equal entries are not always repeated. Where two headings read alike, the source gives them in different places.

Legend:
[1] = Pharmacokinetics and absolute bioavailability in rats (LC-MS/MS); type: in vivo; conditions: rat; for MRT inf: read-out: MRT0-∞
Text: A LC-MS/MS method for determination of compound I-5 and compound M2 in rat plasma was established through experiments to investigate the pharmacokinetic characteristics and absolute bioavailability of compounds in rats.
20 SPF-grade SD male rats (body weight 220±20 g), purchased from Beijing Vital River Laboratory Animal Technology Co., Ltd.
• Chromatographic column: waters BEH C18 1.7 μm; 2.1×100 mm Column • Internal standard: D-I-5 (deuterated compound I-5, with the following structural formula)
20 SD rats were randomly divided into 4 groups, with 5 rats in each group. […]
50 μL plasma was taken, 50 μL D-I-5 (20 ng/mL dissolved in acetonitrile) was added, the mixture was whirled for 30 s, then 100 μL acetonitrile was added; the mixture was fully whirled for 2 min, and was centrifuged at 4° C. at 12000 r/min for 3 min, 50 μL supernatant was taken, 50 μL aqueous solution was added for dilution, followed by whirling for Imin, and 4 μL sample was injected.
The mean plasma concentration-time curves of rats after oral intragastric administration and intravenous administration were respectively shown in FIGS. 8 and 9. Data were processed using DAS 3.0 pharmacokinetic software (Chinese Professional Committee of Mathematical Pharmacology, Shanghai, China), and statistical moment parameters of the non-compartmental model were calculated, Cmax and Tmax being measured values.

[2] = test system: NA reuptake in rat brain synaptosomes; test: 3H-NA reuptake by rat brain synaptosomes; type: biochemical; conditions: 3H-NA 10 nM, rat brain synaptosomes; read-out: NA inhibition rate % IC50
Text: At present, it is believed that absolute or relative deficiencies of the central monoamine neurotransmitters 5-hydroxytryptamine (5-HT), norepinephrine (NA) and dopamine (DA) are closely related to depression and anxiety.
Synaptosomes were separated using methods in literature to prepare brain synaptosomes. SD rats were rapidly decapitated with a small animal decapitator. After decapitation, brains were taken out quickly and precooled in an ice-water mixture, and the pia mater and vascular tissue were removed. Brain tissue was taken out. 10 times volume (ml/g) of 10 mM Tris HCl buffer (containing 0.32 M sucrose, pH 7.4) was added, an ultrasonic cell pulverizer was used for homogenization (maintaining at a low temperature), and the brain tissue was homogenized and centrifuged for 10 min (4° C., 1,000 g). After balanced centrifugation (1500 g, 10 min) at 4° C., precipitate was discarded, then supernatant was taken, and centrifugation (20000 g) was performed again for 30 min. The supernatant was discarded and the precipitate, i.e. crude extract of synaptic corpuscles, was retained. The precipitate was further suspended in 0.32 M cold sucrose solution and then carefully laid on 1.2 M and 0.8 M (10 ml each) cold sucrose gradient solutions which had been laid sequentially on the bottom of the tube, followed by balanced centrifugation (38000 g) at 4 °C for 60 min. A suspension band at the 0.8-1.2 M sucrose interface was carefully collected with a puncture needle, which was placed in 10 ml of 0.32 M cold sucrose solution and mixed well, and equilibrium centrifuged (20000 g) at 4 °C for 30 min. The precipitate was refined brain synaptosomes. […]
The percentage inhibition of isotope ligand binding by each compound was calculated according to the following equation: […]

[3] = male, SD, plasma, po, intragastric administration 12.5 mg/kg, n = 5
[4] = male, SD, plasma, intravenous administration 2.5 mg/kg, n = 5
[5] = male, Sprague-Dawley (SD), plasma, po, intragastric administration 12.5 mg/kg, n = 5
[6] = male, Sprague-Dawley (SD), plasma, intravenous administration 2.5 mg/kg, n = 5

bioavailability ([1]; male, SD, plasma, oral, absolute bioavailability, intragastric 12.5 mg/kg vs intravenous 2.5 mg/kg, read-out: F (bioavailability, %)): 40.8%
AUC(0-t) [1, 3]: 1080 ± 373 ng·h/mL
Tmax [1, 3]: 21 min
half-life [1, 3]: 61.8 ± 20.4 min
C0 [1, 4]: 1640 ± 319 ng/mL
half-life [1, 4]: 14.4 ± 1.8 min
concentration at 0.08 h ([1]; male, SD, plasma, iv, 2.5 mg/kg, single intravenous 2.5 mg/kg, 0.08 h, read-out: Plasma concentration, Mean): 1210 ng/mL
concentration at 0.08 h ([1]; male, SD, plasma, iv, 2.5 mg/kg, single intravenous 2.5 mg/kg, 0.08 h, read-out: Plasma concentration, individual rats): 1090 ng/mL
concentration at 0.25 h ([1]; male, SD, plasma, iv, 2.5 mg/kg, single intravenous 2.5 mg/kg, 0.25 h, read-out: Plasma concentration, Mean): 639 ng/mL
concentration at 0.25 h ([1]; male, SD, plasma, iv, 2.5 mg/kg, single intravenous 2.5 mg/kg, 0.25 h, read-out: Plasma concentration, individual rats): 575 ng/mL
concentration at 0.5 h ([1]; male, SD, plasma, iv, 2.5 mg/kg, single intravenous 2.5 mg/kg, 0.50 h): 315 ng/mL
concentration at 1 h ([1]; male, SD, plasma, iv, 2.5 mg/kg, single intravenous 2.5 mg/kg, 1 h, read-out: Plasma concentration, Mean): 79 ng/mL
concentration at 2 h ([1]; male, SD, plasma, iv, 2.5 mg/kg, single intravenous 2.5 mg/kg, 2 h): 5.46 ng/mL
concentration at 3 h ([1]; male, SD, plasma, iv, 2.5 mg/kg, single intravenous 2.5 mg/kg, 3 h): 3.21 ng/mL
concentration at 0.08 h ([1]; male, SD, plasma, oral, 12.5 mg/kg, single intragastric 12.5 mg/kg, 0.08 h, read-out: Plasma concentration, Mean): 191 ng/mL
concentration at 0.25 h ([1]; male, SD, plasma, oral, 12.5 mg/kg, single intragastric 12.5 mg/kg, 0.25 h, read-out: Plasma concentration, Mean): 398 ng/mL
concentration at 0.5 h ([1]; male, SD, plasma, oral, 12.5 mg/kg, single intragastric 12.5 mg/kg, 0.50 h): 387 ng/mL
concentration at 1 h ([1]; male, SD, plasma, oral, 12.5 mg/kg, single intragastric 12.5 mg/kg, 1 h, read-out: Plasma concentration, Mean): 211 ng/mL
concentration at 1 h ([1]; male, SD, plasma, oral, 12.5 mg/kg, single intragastric 12.5 mg/kg, 1 h, read-out: Plasma concentration, individual rats): 145 ng/mL
concentration at 2 h ([1]; male, SD, plasma, oral, 12.5 mg/kg, single intragastric 12.5 mg/kg, 2 h): 132 ng/mL
concentration at 3 h ([1]; male, SD, plasma, oral, 12.5 mg/kg, single intragastric 12.5 mg/kg, 3 h): 134 ng/mL
concentration at 4 h ([1]; male, SD, plasma, oral, 12.5 mg/kg, single intragastric 12.5 mg/kg, 4 h, read-out: Plasma concentration, Mean): 164 ng/mL
concentration at 6 h ([1]; male, SD, plasma, oral, 12.5 mg/kg, single intragastric 12.5 mg/kg, 6 h): 86.7 ng/mL
concentration at 8 h ([1]; male, SD, plasma, oral, 12.5 mg/kg, single intragastric 12.5 mg/kg, 8 h, read-out: Plasma concentration, Mean): 2.07 ng/mL
concentration at 8 h ([1]; male, SD, plasma, oral, 12.5 mg/kg, single intragastric 12.5 mg/kg, 8 h, read-out: Plasma concentration, individual rats): 5.38 ng/mL
Cmax ([1]; male, SD, plasma, po, 12.5 mg/kg, intragastric administration 12.5 mg/kg, n = 5, read-out: Cmax): 425 ± 137 ng/mL
AUC(0-inf) [1, 5]: 1120 ± 367 ng·h/mL
AUC(0-t) [1, 5]: 1080 ± 373 ng·h/mL
MRT inf [1, 5]: 151 ± 36.6 min
AUC(0-inf) [1, 6]: 532 ± 127 ng·h/mL
AUC(0-t) [1, 6]: 529 ± 130 ng·h/mL
MRT inf [1, 6]: 18.6 ± 3.6 min
Cmax ([1]; intragastric administration 12.5 mg/kg, n = 5, 12.5 mg/kg): 425.47 ± 136.97 ng/mL
Plasma concentration, individual rats ([1]; single intragastric 12.5 mg/kg, 8 h): BLOQ (3×) and 3.64 ng/mL
Plasma concentration, individual rats ([1]; single intravenous 2.5 mg/kg, 4 h): BLOQ
Plasma concentration, individual rats ([1]; single intravenous 2.5 mg/kg, 6 h): BLOQ
Plasma concentration, individual rats ([1]; single intravenous 2.5 mg/kg, 8 h): BLOQ
IC50 [2]: 23.5 ± 3.56 nM
Compound: NC(=O)/C=C/c1cc2c(c(C(F)(F)F)c1)OCO2 [Compound M2]
Plasma concentration, individual rats ([1]; single intragastric 12.5 mg/kg, 0.08 h): 78.15 ng/mL and 127.05 ng/mL and 78.40 ng/mL and 240.77 ng/mL and 433.00 ng/mL
Plasma concentration, individual rats ([1]; single intragastric 12.5 mg/kg, 0.25 h): 213.75 ng/mL and 487.46 ng/mL and 212.80 ng/mL and 494.43 ng/mL and 582.67 ng/mL
Plasma concentration, individual rats ([1]; single intragastric 12.5 mg/kg, 0.50 h): 270.87 ng/mL and 411.67 ng/mL and 291.90 ng/mL and 416.38 ng/mL and 542.56 ng/mL
Plasma concentration, individual rats ([1]; single intragastric 12.5 mg/kg, 1 h): 184.82 ng/mL and 165.92 ng/mL and 270.26 ng/mL and 288.12 ng/mL
Plasma concentration, individual rats ([1]; single intragastric 12.5 mg/kg, 2 h): 90.66 ng/mL and 71.40 ng/mL and 131.47 ng/mL and 231.27 ng/mL and 133.28 ng/mL
Plasma concentration, individual rats ([1]; single intragastric 12.5 mg/kg, 3 h): 175.71 ng/mL and 60.26 ng/mL and 194.74 ng/mL and 114.91 ng/mL and 122.55 ng/mL
Plasma concentration, individual rats ([1]; single intragastric 12.5 mg/kg, 4 h): 268.66 ng/mL and 107.99 ng/mL and 188.58 ng/mL and 66.64 ng/mL and 188.12 ng/mL
Plasma concentration, individual rats ([1]; single intragastric 12.5 mg/kg, 6 h): 57.55 ng/mL and 48.74 ng/mL and 11.84 ng/mL and 15.99 ng/mL and 299.46 ng/mL
Plasma concentration, individual rats ([1]; single intravenous 2.5 mg/kg, 0.08 h, 2.5 mg/kg): 1221.94 ng/mL and 1589.64 ng/mL and 991.98 ng/mL and 1170.61 ng/mL
Plasma concentration, individual rats ([1]; single intravenous 2.5 mg/kg, 0.25 h, 2.5 mg/kg): 742.62 ng/mL and 807.81 ng/mL and 497.57 ng/mL and 574.42 ng/mL
Plasma concentration, individual rats ([1]; single intravenous 2.5 mg/kg, 0.50 h, 2.5 mg/kg): 281.81 ng/mL and 435.1 ng/mL and 406.94 ng/mL and 201.98 ng/mL and 248.89 ng/mL
Plasma concentration, individual rats ([1]; single intravenous 2.5 mg/kg, 1 h, 2.5 mg/kg): 74.30 ng/mL and 130.96 ng/mL and 92.59 ng/mL and 39.74 ng/mL and 57.32 ng/mL
Plasma concentration, individual rats ([1]; single intravenous 2.5 mg/kg, 2 h, 2.5 mg/kg): 4.62 ng/mL and 12.27 ng/mL and 2.23 ng/mL and BLOQ and 2.72 ng/mL
Plasma concentration, individual rats ([1]; single intravenous 2.5 mg/kg, 3 h, 2.5 mg/kg): 2.035 ng/mL and 4.403 ng/mL and BLOQ (3×)
